Results on 121 molecules are retold here after a melting point compilation (Tetko et al.).

Each structure is given as a SMILES string.

The melting point is the temperature of the solid-liquid transition. The molecule `CSc1nc2nc(C)c(CC(=O)O)c(C)n2n1` returned a melting point of 275 to 277 °C.
The result for `O=C(O)c1occc1CN1C(=O)Cc2ccccc21` reads 203 to 205 °C.
The result for `Cc1ccc(S(=O)(=O)Cl)cc1S(=O)(=O)N1CCCCC1` reads 111 to 113 °C; that for `NC(=O)c1c(F)cc(Br)cc1F`, 172 to 174 °C; that for `CCOc1cc(Br)c(CC#N)cc1OCC`, 68 to 70 °C.
The result for `O=c1[nH]c2cc([N+](=O)[O-])ccc2o1` reads 229 to 231 °C; that for `O=C(Nc1cc(Cl)ccc1Cl)C1CCCCN1` (stereo unspecified), 127 to 129 °C; that for `Clc1cccc(Nc2nc3ccccc3s2)c1`, 173 to 175 °C.
`CCOc1ccc(S(=O)(=O)N2CCCCC2)cc1N`: the melting point lay in the range of 134 to 136 °C.
The result for `COc1ccc(-c2nn(-c3ccccc3)cc2C(=O)O)cc1` reads 244 to 246 °C; that for `O=C(NC1CCc2ccccc21)c1ccnc(F)c1` (stereo unspecified), 121 to 123 °C.
The result for `Fc1ccc2ccc(Cl)nc2c1` reads 97 to 99 °C.
The molecule `Nc1nnc(Cc2ccc3ccccc3c2)o1` showed a melting point of 219 to 221 °C.
The result for `Cc1sc2ncnc(N3CCC(C(=O)O)CC3)c2c1C` reads 244 to 246 °C; that for `CC(C)(C)OC(=O)CNc1ccc2c(c1)OCO2`, 70 to 72 °C; that for `COC(=O)c1cc([N+](=O)[O-])cc(C)c1C`, 72 to 74 °C.
In the case of `Nc1ccc(S(=O)(=O)N2CCCCC2)cn1`, the melting point is 171 to 173 °C.
In turn, `Clc1cncc(OCc2ccccc2)n1` gave a melting point of 47 to 49 °C.
The result for `O=c1nc(S)[nH]nc1-c1cc(Cl)sc1Cl` reads 203 to 205 °C; that for `O=C1CCCc2sc(Br)cc21`, 76 to 78 °C; that for `CN(CC(N)=S)C(=O)OC(C)(C)C`, 149 to 151 °C.
The result for `NNC(=O)CC1CC1` reads 89 to 91 °C; that for `O=C(Nc1ccccc1)OCC(F)(F)F`, 62 to 65 °C; that for `CCc1c(-c2ccc(Br)cc2)n[nH]c1N`, 94 to 96 °C.
The result for `Nc1ccccc1N1CCOC1=O` reads 88 to 90 °C; that for `NC(=O)CCCCCl`, 76 to 78 °C.
In turn, `CC(=O)Nc1nc(CCl)cs1` displayed a melting point of 159 to 161 °C.
The result for `Nc1cccc(Cl)c1-n1cncn1` reads 122 to 124 °C; that for `C=CC(=O)Nc1cc(N)ccc1F`, 135 to 137 °C; that for `NC(=S)CCCc1ccccc1`, 59 to 61 °C.
In the case of `CNC(=O)Cn1cnc(N)n1`, the melting point is 149 to 151 °C.
Turning to `O=C(O)c1ccc(Cl)cc1N1CCCC1=O`, the melting point was 218 to 220 °C.
The result for `CS(=O)(=O)N1CCCC1C(=O)O` (stereo unspecified) reads 52 to 54 °C; that for `O=C1NC(=O)c2cnccc21`, 233 to 235 °C; that for `O=Cc1cn(-c2ccc(Cl)c(Cl)c2)nn1`, 175 to 177 °C.
The result for `O=C(O)C1(c2ccc(Br)cc2)CCC1` reads 117 to 119 °C.
`Cc1c(C(=O)O)sc2nc(Cc3ccccc3)[nH]c(=O)c12` had a melting point of 342 to 344 °C.
The result for `COc1ccc(Cl)cc1N1CC(C(=O)O)CC1=O` (stereo unspecified) reads 150 to 155 °C.
As for `COc1ccc(C(=O)Nc2ccccc2C(=O)O)cc1`, the melting point lay within 184 to 186 °C.
The result for `Cc1nc(C#N)c(NN)o1` reads 157 to 159 °C; that for `CCN(CC)S(=O)(=O)c1cc(C(=O)O)ccc1C`, 142 to 144 °C; that for `Cc1ccccc1C(N)CC(=O)O` (stereo unspecified), 225 to 227 °C.
The result for `CCc1ccc(OCc2nnc(S)n2C(C)c2ccccc2)cc1` (stereo unspecified) reads 143 to 145 °C; that for `O=C(O)CNC(=O)C1CCCCC1`, 153 to 157 °C.
The result for `O=C1CCNc2ccc(F)cc21` reads 49 to 51 °C.
Regarding `COc1ccc(-c2nnn(CC(=O)O)n2)cc1OC`, the melting point was in the range of 259 to 261 °C.
The result for `Cc1cc(C(=O)O)c2c(CC(C)(C)C)noc2n1` reads 224 to 226 °C.
The result for `Nc1nc(Cl)c(C=O)c(N2CCOCC2)n1` reads 173 to 175 °C; that for `C=CS(=O)(=O)c1cc(F)cc([N+](=O)[O-])c1`, 90 to 92 °C.
Regarding `CC(C)(C)OC(=O)N1CCCNC(=O)C1`, the melting point is 112 to 114 °C.
Regarding `CC(=O)Cn1cc(Br)cn1`, the melting point lay within 62 to 64 °C.
The result for `O=C(O)C1CCOc2ccccc21` (stereo unspecified) reads 87 to 89 °C.
The result for `Clc1ccc(NCc2cccnc2)cc1` reads 98 to 100 °C; that for `CC(Nc1ccc(Cl)nn1)c1ccccc1` (stereo unspecified), 159 to 161 °C.
In the case of `O=C(O)CCCNC(=O)c1ccco1`, the melting point lay in the range of 91 to 93 °C.
The result for `O=C(O)c1cc(S(=O)(=O)N2CCOCC2)ccc1F` reads 201 to 203 °C; that for `CC(C)(C)Cc1cc(N)n(-c2ccccc2)n1`, 95 to 97 °C.
In the case of `CN(C)c1ncnc(Cl)c1CCl`, the melting point fell in the range of 64 to 66 °C.
Regarding `O=C(O)c1cccnc1Oc1ccc(F)cc1Br`, the melting point was 189 to 191 °C.
On to `Cc1nn(-c2ccc(Cl)cc2)c(C)c1C=O`, for which the melting point fell in the range of 131 to 133 °C.
The result for `Cc1ccc(OCCCC(=O)O)cc1C` reads 90 to 92 °C; that for `CC1(C)COC2(CCNCC2)OC1`, 62 to 64 °C; that for `COc1ccc(Br)cc1CN1C(=O)CNC1=O`, 183 to 185 °C.
Turning to `CC(C)c1cccc(OCC(=O)O)c1`, the melting point lay in the range of 65 to 67 °C.
`Cc1c(Br)ccc(S(N)(=O)=O)c1C` returned a melting point of 195 to 197 °C.
`NCc1cccnc1N1CCC(C(N)=O)CC1` came in with a melting point of 129 to 131 °C.
The result for `O=C(CCl)c1ccc(NC(=O)c2ccccc2)cc1` reads 140 to 142 °C; that for `Nc1ccc(C(=O)Nc2cccnc2)cc1`, 212 to 214 °C.
With `O=c1[nH]c(CCl)nc2sc3c(c12)CCC3`, the melting point fell in the range of 230 to 238 °C.
`Cc1ccn2c(N)c(-c3ccc(F)cc3)nc2c1` registered a melting point of 188 to 190 °C.
The result for `COc1cc(CCC(=O)O)cc(OC)c1` reads 54 to 56 °C; that for `CS(=O)(=O)Nc1cccc(OCCN)c1`, 134 to 136 °C.
As for `CC(C)(C)OC(=O)N1CCC(=O)C(Br)C1` (stereo unspecified), the melting point lay in the range of 95 to 97 °C.
Take `Cn1cc(N2C(=O)C=CC2=O)cn1`: the melting point lay within 151 to 153 °C.
The result for `Cc1ccc(-c2nnco2)cc1N` reads 136 to 138 °C; that for `NS(=O)(=O)Cc1ccc(Cl)nc1`, 142 to 144 °C; that for `O=C(O)c1ccc(S(=O)(=O)NCC2CCCO2)cc1` (stereo unspecified), 169 to 171 °C.
As for `C=CCN(c1ccccc1)S(=O)(=O)c1cccc(C(=O)O)c1`, the melting point was in the range of 103 to 105 °C.
The result for `N#Cc1cccnc1N1CCC(C(N)=O)CC1` reads 177 to 179 °C; that for `Cc1nnc(N)o1`, 183 to 185 °C; that for `O=C(O)c1cc(C(=O)O)cc(S(=O)(=O)Cl)c1`, 217 to 219 °C.
The result for `O=S1(=O)CCCN1c1ccccc1Br` reads 115 to 117 °C.
Molecule `COC(=O)c1cc(F)ccc1CBr` yielded a melting point of 41 to 43 °C.
With `CC(C(=O)O)C(C)(C)C` (stereo unspecified), the melting point lay within 34 to 36 °C.
`O=Cc1nc(-c2ccccc2)c[nH]1` came in with a melting point of 170 to 172 °C.
Consider `O=C(O)c1c[nH]c2ccccc2c1=O`, for which the melting point fell in the range of 250 to 252 °C.
The result for `CC(C)CCNC(=O)C1CSCN1` (stereo unspecified) reads 162 to 164 °C.
The result for `NNC(=O)c1ccc2c(c1)OCCO2` reads 142 to 144 °C; that for `CC(Cl)C(=O)c1ccc(NS(C)(=O)=O)cc1` (stereo unspecified), 189 to 192 °C.
The result for `CCCOc1ccc(NS(C)(=O)=O)cc1` reads 118 to 120 °C; that for `O=C(Cc1ccc(O)cc1)NC1CCNCC1`, 211 to 213 °C; that for `N#Cc1cccc(CS(=O)(=O)NCC(=O)O)c1`, 158 to 160 °C.
`CC(OCc1ccccc1)C(=O)O` (stereo unspecified) showed a melting point of 51 to 53 °C.
In the case of `O=C(O)c1cccc(NC(=O)c2ccc(Br)cc2)c1`, the melting point is 306 to 308 °C.
As for `NC(=O)C1(Nc2ccccc2)CCCCC1`, the melting point lay in the range of 148 to 150 °C.
The result for `Clc1ccc(CN2CCNCC2)cn1` reads 89 to 91 °C; that for `Cc1csc(-c2ccc(N)cc2)n1`, 111 to 113 °C.
The molecule `COC(=O)c1occc1CBr` came in with a melting point of 50 to 52 °C.
`O=C(Nc1cccnc1)C(Cl)C(=O)c1ccccc1` (stereo unspecified) displayed a melting point of 86 to 90 °C.
The result for `CS(=O)(=O)N1CCN(CCN)CC1` reads 10 to 12 °C.
The result for `CCOC(=O)c1ccc(Br)c(S(=O)(=O)Cl)c1` reads 93 to 95 °C; that for `NC(=O)c1ccnc(F)c1`, 175 to 177 °C; that for `O=C(CCn1ccnc1)Nc1cccc(C(=O)O)c1`, 216 to 218 °C.
`COc1ncc(Br)cc1CC(=O)O`: the melting point lay within 129 to 131 °C.
The result for `CC(C)(C)OC(=O)Nc1ccc(C(=O)O)cc1O` reads 179 to 181 °C; that for `COc1ccc(C2C(C(=O)O)CCC(=O)N2C)cc1` (stereo unspecified), 213 to 215 °C; that for `CC(Oc1ccc(Cl)cc1Br)C(=O)O` (stereo unspecified), 122 to 124 °C.
The result for `Cc1cc(C(=O)CCl)c(C)n1CC(N)=O` reads 218 to 220 °C.
For `O=C(O)COc1ccccc1OCc1ccc(F)cc1`, the melting point is 108 to 110 °C.
The molecule `N#CCOc1ccc(/C=C/C(=O)O)cc1` yielded a melting point of 214 to 216 °C.
The result for `CS(=O)(=O)Nc1cccc2c1CCCN2` reads 117 to 119 °C.
`O=C(O)C1CCCN1C(=O)Nc1ccccc1` (stereo unspecified) yielded a melting point of 161 to 163 °C.
The result for `COc1ccc(S(=O)(=O)N2CCCCC2)cc1N` reads 137 to 139 °C; that for `O=C(O)Cc1ccc(NS(=O)(=O)c2cccc(C(F)(F)F)c2)cc1`, 122 to 124 °C.
The molecule `O=C(O)CCOc1ccc(F)c(Cl)c1` displayed a melting point of 82 to 84 °C.
The result for `Cc1ccc(SC2CCCC2)c(C(=O)O)c1` reads 130 to 132 °C; that for `Cc1nc(S)c2c(=O)n(C)c(=O)n(CC(C)C)c2n1`, 172 to 174 °C; that for `Nc1cc(F)c(Br)cc1N`, 104 to 106 °C.
Take `NS(=O)(=O)N1CCC(OC(=O)C(F)(F)F)CC1`: the melting point was in the range of 126 to 128 °C.
The molecule `Cc1ccc(CNc2ccc3[nH]c(=O)[nH]c3c2)cc1` yielded a melting point of 271 to 273 °C.
The result for `COc1ccc(OCCC(=O)O)cc1` reads 104 to 106 °C.
